Assay results: US10420772B2, “Animal and human anti-trypanosomonal and anti-leishmania agents” (Celgene Corporation, priority 2016, dated 2019)

How the values were obtained:
Format in all cases: cell-based
[1] = test system: STIB 719/ILRAD 560 T. vivax (drug sensitive) strain; test: Ex vivo Alamar Blue 48 hrs drug sensitivity assay for T. vivax; conditions: Trypanosoma vivax, STIB719; STIB 719/ILRAD 560 T. vivax bloodstream form, ex vivo, Alamar Blue, 48 hrs; read-out: T. vivax Act.
Summary of the method: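 Bloodstream-form trypanosomes taken from a parasitaemic mouse were exposed to compound for 45 h at 37°C, 5% CO2 in HMI medium with 20% bovine serum. Resazurin added for a further 3 h, fluorescence read at ex 536/em 588 nm. IC50 from 11-point sigmoidal curves, at least three independent runs.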

[2] = test system: IL3000 T. congolense (drug sensitive) strain; test: In vitro Alamar Blue 72 hrs drug sensitivity assay for T. congolense; conditions: Trypanosoma congolense, IL3000 T. congolense bloodstream form, read-out: T. congo Act.
Summary of the method: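 Bloodstream-form IL3000 trypanosomes in HMI medium with 20% bovine serum were exposed to compound for 69 hrs at 34° C, 5% CO2. Resazurin was then added for 3 hrs and fluorescence read (ex 536/em 588 nm). IC50 came from 11-point sigmoidal curves over at least three independent runs.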

[3] = test system: STIB 806 K T. evansi (drug sensitive) strain; test: In vitro Alamar Blue 72 hrs drug sensitivity assay for T. evansi; conditions: STIB 806 K T. evansi bloodstream form, Alamar Blue, 72 hrs; read-out: T. evansi Act.
Experimental: In vitro Alamar Blue 72 hrs drug sensitivity assay for T. evansi. Compounds were tested in vitro for chemotherapeutic efficacy against the STIB 806 K T. evansi (drug sensitive) strain, using an Alamar Blue assay. Test compounds were prepared as 10 mg/mL DMSO stocks for each assay run. Compounds were assayed in at least three separate, independent test runs and an 11-point dilution curve was used to determine the IC50 values. Bloodstream form trypanosomes were incubated with test compounds for 69 hrs at 37° C. in a humidified atmosphere containing 5% CO2, supported in HMI media containing 15% horse serum. Thereafter, 10 μL of Resazurin dye (12.5 mg in 100 mL of phosphate buffered saline, Sigma-Aldrich, Buchs, Switzerland) were added for an additional 3 hrs. Plates were then read using a fluorescent plate reader (Spectramax, Gemini XS, Bucher Biotec, Basel, Switzerland) using an excitation wavelength of 536 nm and an emission wavelength of 588 nm. Data points were averaged to generate sigmoidal dose-response curves and IC50 values were determined using Softmax Pro 5.2 software.

Measured: IC50

CC1(Nc2ncc3nc(Nc4cccc(Cl)c4)n([C@H]4CC[C@@H](CN5CCCCC5)CC4)c3n2)CCOCC1 [A-40, N8-(3-chlorophenyl)-N2-(4-methyltetrahydro-2H-pyran-4-yl)-9-((1s,4s)-4-(piperidin-1-ylmethyl)cyclohexyl)-9H-purine-2,8-diamine]
< 150 nM: all assays above

CC1(Nc2ncc3nc(Nc4cc(Cl)cc(Cl)c4)n([C@H]4CC[C@@H](CN)CC4)c3n2)CCOCC1 [A-43, 9-((1s,4s)-4-(aminomethyl)cyclohexyl)-N8-(3,5-dichlorophenyl)-N2-(4-methyltetrahydro-2H-pyran-4-yl)-9H-purine-2,8-diamine]
< 150 nM: all assays above

CC1(Nc2ncc3nc(Nc4cc(F)cc(F)c4)n([C@H]4CC[C@@H](CN)CC4)c3n2)CCOCC1 [A-44, 9-((1s,4s)-4-(aminomethyl)cyclohexyl)-N8-(3,5-difluorophenyl)-N2-(4-methyltetrahydro-2H-pyran-4-yl)-9H-purine-2,8-diamine]
< 150 nM: all assays above

CC1(Nc2ncc3nc(Nc4cccc(C(F)(F)F)c4F)n([C@H]4CC[C@@H](CN)CC4)c3n2)CCOCC1 [A-46, 9-((1s,4s)-4-(aminomethyl)cyclohexyl)-N8-(2-fluoro-3-(trifluoromethyl)phenyl)-N2-(4-methyltetrahydro-2H-pyran-4-yl)-9H-purine-2,8-diamine]
< 150 nM: all assays above

CC1(Nc2ncc3nc(Nc4cc(F)cc(Cl)c4)n([C@H]4CC[C@@H](CN)CC4)c3n2)CCOCC1 [A-47, 9-((1s,4s)-4-(aminomethyl)cyclohexyl)-N8-(3-chloro-5-fluorophenyl)-N2-(4-methyltetrahydro-2H-pyran-4-yl)-9H-purine-2,8-diamine]
< 150 nM: all assays above

CC1(Nc2ncc3nc(Nc4cccc(Cl)c4F)n([C@H]4CC[C@@H](CN)CC4)c3n2)CCOCC1 [A-49, 9-((1s,4s)-4-(aminomethyl)cyclohexyl)-N8-(3-chloro-2-fluorophenyl)-N2-(4-methyltetrahydro-2H-pyran-4-yl)-9H-purine-2,8-diamine]
< 150 nM: all assays above
